Broadly, the MIC is the smallest concentration in the dilution series that meets the test's criterion for growth inhibition. For orientation: HC50 means the concentration that lyses half of the red blood cells.

≈ marks a conversion by molar mass, not a printed value. Square brackets hold non-standard residues; d marks the D form. Peptide text beside a SMILES is read from it. Dip = N[C@H](C(=O)O)C(c1ccccc1)c1ccccc1; 2Nal = N[C@@H](Cc1ccc2ccccc2c1)C(=O)O Some results are limits rather than exact numbers.

Here are results for 13 compounds from ChEMBL document CHEMBL5154681, “Small Amphiphilic Peptides: Activity Against a Broad Range of Drug-Resistant Bacteria and Structural Insight into Membranolytic Properties” (J Med Chem, 2022).

The subject of data set [1] is Staphylococcus aureus. Description: Antibacterial activity against Staphylococcus aureus ATCC 29213 incubated for 24 hrs by microtiter plate method. It is filed as functional. The conditions noted are these: Staphylococcus aureus, ATCC 29213, read-out: MIC.
The subject of the next data set is Escherichia coli. Description: Antibacterial activity against Escherichia coli ATCC 25922 incubated for 24 hrs by microtiter plate method. The conditions noted are these: Escherichia coli, ATCC 25922, 24 h, read-out: MIC. It is filed as functional.
In a further data set the test system is Pseudomonas aeruginosa. Description: Antibacterial activity against Pseudomonas aeruginosa ATCC 27883 incubated for 24 hrs by microtiter plate method. It is filed as functional. Conditions: Pseudomonas aeruginosa, ATCC 27883, 24 h, read-out: MIC.
Data set [2] concerns Staphylococcus aureus. Description: Antibacterial activity against methicillin resistant Staphylococcus aureus ATCC BAA-1556 incubated for 24 hrs by microtiter plate method. It is filed as functional.
Data set [3] can be described thus: Hemolytic activity in human RBC assessed as hemolysis incubated for 2 hrs by spectrophotometer analysis. Conditions: human red blood cells (erythrocytes). It counts as toxicity, cell-based, Erythrocyte.
Data set [4] deals with Enterococcus faecalis. The data set can be described thus: Antibacterial activity against vancomycin-resistant Enterococcus faecalis ATCC 51575 incubated for 24 hrs by microtiter plate method. It counts as functional.
In another data set the test system is Bacillus subtilis. The data set can be described thus: Antibacterial activity against Bacillus subtilis ATCC 6633 incubated for 24 hrs by microtiter plate method. It counts as functional.
In data set [5] the test system is Streptococcus pneumoniae. Description: Antibacterial activity against multidrug resistant […] ATCC 700677 incubated for 24 hrs by microtiter plate method. It counts as functional.
Data set [6] concerns Enterococcus faecium. The data set can be described thus: Antibacterial activity against vancomycin-resistant Enterococcus faecium ATCC 700221 incubated for 24 hrs by microtiter plate method. It counts as functional.
The subject of data set [7] is Enterococcus faecium. Description: Antibacterial activity against Enterococcus faecium ATCC 27270 incubated for 24 hrs by microtiter plate method. It is filed as functional.
Data set [8] relates to Enterococcus faecalis. Description: Antibacterial activity against Enterococcus faecalis ATCC 29212 incubated for 24 hrs by microtiter plate method. It is filed as functional.
Data set [9] concerns Streptococcus pneumoniae. The data set can be described thus: Antibacterial activity against […] ATCC 49619 incubated for 24 hrs by microtiter plate method. It is filed as functional.
The next data set has as its system Bacillus cereus. The data set can be described thus: Antibacterial activity against Bacillus cereus ATCC 13061 incubated for 24 hrs by microtiter plate method. It counts as functional.
Where [10] appears, read: Staphylococcus aureus, ATCC BAA-1556, 24 h, read-out: MIC.

As to `N=C(N)NCCC[C@H](NC(=O)[C@@H](NC(=O)[C@@H](NC(=O)[C@H](CCCNC(=N)N)NC(=O)[C@H](CCCNC(=N)N)NC(=O)[C@@H](NC(=O)[C@@H](N)CCCNC(=N)N)C(c1ccccc1)c1ccccc1)C(c1ccccc1)c1ccccc1)C(c1ccccc1)c1ccccc1)C(=O)O` (H-R[Dip]RR[Dip][Dip]R-OH), the MIC came to 12.5 µg/mL (≈ 9.52 µM) in the data set with Staphylococcus aureus [1], 25 µg/mL (≈ 19 µM) in the data set on Escherichia coli, 100 µg/mL (≈ 76.2 µM) in the data set with Pseudomonas aeruginosa and 25 µg/mL (≈ 19 µM) in the data set on Staphylococcus aureus [2] (setting [10]). In data set [3], the HC50 at 2 h was 220 µg/mL.

As for `N=C(N)NCCC[C@@H]1NC(=O)[C@H](CCCNC(=N)N)NC(=O)[C@H](CCCNC(=N)N)NC(=O)[C@H](Cc2ccc3ccccc3c2)NC(=O)[C@H](Cc2ccc3ccccc3c2)NC(=O)[C@H](CCCNC(=N)N)NC1=O` (cyclo([2Nal][2Nal]RRRR)), the minimum inhibitory concentration (MIC) with Staphylococcus aureus [1] is 6.2 µg/mL (≈ 6.08 µM); in the data set with Escherichia coli, 50 µg/mL (≈ 49.1 µM); in the data set on Pseudomonas aeruginosa it was 50 µg/mL (≈ 49.1 µM); with Staphylococcus aureus [2] (setting [10]) it was 6.2 µg/mL (≈ 6.08 µM). Also, the HC50 at 2 h in [3] amounted to 125 µg/mL.

For the compound `N=C(N)NCCC[C@@H]1NC(=O)[C@H](CCCNC(=N)N)NC(=O)[C@H](Cc2ccc3ccccc3c2)NC(=O)[C@H](Cc2ccc3ccccc3c2)NC(=O)[C@H](Cc2ccc3ccccc3c2)NC(=O)[C@H](CCCNC(=N)N)NC1=O` (cyclo([2Nal][2Nal][2Nal]RRR)), the MIC in the data set with Staphylococcus aureus [1] was determined as 3.1 µg/mL (≈ 2.92 µM); in the data set with Escherichia coli, 25 µg/mL (≈ 23.6 µM); in the data set on Pseudomonas aeruginosa it was 50 µg/mL (≈ 47.2 µM); in the data set with Staphylococcus aureus [2] (setting [10]) it was 6.2 µg/mL (≈ 5.85 µM). Besides, in [3], the HC50 at 2 h was found to be 50 µg/mL.

On to `N=C(N)NCCC[C@@H]1NC(=O)[C@H](CCCNC(=N)N)NC(=O)[C@H](CCCNC(=N)N)NC(=O)[C@H](Cc2ccc3ccccc3c2)NC(=O)[C@H](Cc2ccc3ccccc3c2)NC(=O)[C@H](Cc2ccc3ccccc3c2)NC(=O)[C@H](CCCNC(=N)N)NC(=O)[C@H](CCCNC(=N)N)NC1=O` (cyclo([2Nal][2Nal][2Nal]RRRRR)), for which the MIC with Staphylococcus aureus [1] came to 3.1 µg/mL (≈ 2.26 µM); in the data set with Escherichia coli, 50 µg/mL (≈ 36.4 µM); in the data set with Pseudomonas aeruginosa it was 25 µg/mL (≈ 18.2 µM); in the data set on Staphylococcus aureus [2] (setting [10]), 6.2 µg/mL (≈ 4.52 µM). In [3], the HC50 at 2 h came out at 90 µg/mL.

Regarding `N=C(N)NCCC[C@@H]1NC(=O)[C@H](CCCNC(=N)N)NC(=O)[C@H](CCCNC(=N)N)NC(=O)[C@H](Cc2ccc3ccccc3c2)NC(=O)[C@H](Cc2ccc3ccccc3c2)NC(=O)[C@H](Cc2ccc3ccccc3c2)NC(=O)[C@H](Cc2ccc3ccccc3c2)NC(=O)[C@H](CCCNC(=N)N)NC1=O` (cyclo([2Nal][2Nal][2Nal][2Nal]RRRR)), the MIC in the data set with Staphylococcus aureus [1] is 3.1 µg/mL (≈ 2.19 µM); in the data set with Escherichia coli, 25 µg/mL (≈ 17.7 µM); in the data set on Pseudomonas aeruginosa, 50 µg/mL (≈ 35.4 µM); in the data set on Staphylococcus aureus [2] (setting [10]), 6.2 µg/mL (≈ 4.39 µM). The HC50 at 2 h in [3] was determined as 30 µg/mL.

`N=C(N)NCCC[C@@H]1NC(=O)[C@H](CCCNC(=N)N)NC(=O)[C@H](CCCNC(=N)N)NC(=O)[C@H](C(c2ccccc2)c2ccccc2)NC(=O)[C@H](C(c2ccccc2)c2ccccc2)NC(=O)[C@H](CCCNC(=N)N)NC1=O` (cyclo([Dip][Dip]RRRR)): the MIC in the data set with Staphylococcus aureus [1] was determined as 6.2 µg/mL (≈ 5.79 µM); in the data set with Escherichia coli it was 50 µg/mL (≈ 46.7 µM); in the data set with Pseudomonas aeruginosa, 25 µg/mL (≈ 23.3 µM); with Staphylococcus aureus [2] (setting [10]), 6.2 µg/mL (≈ 5.79 µM). In addition, the HC50 at 2 h in [3] is 110 µg/mL.

On to `NCCCC[C@@H]1NC(=O)[C@H](CCCCN)NC(=O)[C@H](CCCCN)NC(=O)[C@H](C(c2ccccc2)c2ccccc2)NC(=O)[C@H](C(c2ccccc2)c2ccccc2)NC(=O)[C@H](C(c2ccccc2)c2ccccc2)NC(=O)[C@H](CCCCN)NC1=O` (cyclo([Dip][Dip][Dip]KKKK)), for which the MIC in the data set on Staphylococcus aureus [1] is 12.5 µg/mL (≈ 10.6 µM); in the data set with Escherichia coli it was greater than 100 µg/mL; in the data set on Pseudomonas aeruginosa, greater than 100 µg/mL; in the data set on Staphylococcus aureus [2] (setting [10]), 12.5 µg/mL (≈ 10.6 µM). The HC50 at 2 h in data set [3] came out at 165 µg/mL.

Consider `NCCCC[C@@H]1NC(=O)[C@H](CCCCN)NC(=O)[C@H](CCCCN)NC(=O)[C@H](C(c2ccccc2)c2ccccc2)NC(=O)[C@H](C(c2ccccc2)c2ccccc2)NC(=O)[C@H](C(c2ccccc2)c2ccccc2)NC(=O)[C@H](CCCCN)NC(=O)[C@H](CCCCN)NC1=O` (cyclo([Dip][Dip][Dip]KKKKK)), for which the MIC was 6.2 µg/mL (≈ 4.73 µM) in the data set with Staphylococcus aureus [1], 50 µg/mL (≈ 38.1 µM) with Escherichia coli, greater than 100 µg/mL with Pseudomonas aeruginosa and 12.5 µg/mL (≈ 9.54 µM) in the data set on Staphylococcus aureus [2] (setting [10]). Besides, the HC50 at 2 h in [3] worked out at 180 µg/mL.

As for `N=C(N)NCCC[C@@H]1NC(=O)[C@H](CCCNC(=N)N)NC(=O)[C@H](CCCNC(=N)N)NC(=O)[C@H](C(c2ccccc2)c2ccccc2)NC(=O)[C@H](C(c2ccccc2)c2ccccc2)NC(=O)[C@H](C(c2ccccc2)c2ccccc2)NC(=O)[C@H](CCCNC(=N)N)NC(=O)[C@H](CCCNC(=N)N)NC1=O` (cyclo([Dip][Dip][Dip]RRRRR)), the MIC with Staphylococcus aureus [1] was 6.2 µg/mL (≈ 4.27 µM); with Escherichia coli, 25 µg/mL (≈ 17.2 µM); in the data set with Pseudomonas aeruginosa, 25 µg/mL (≈ 17.2 µM); in the data set on Staphylococcus aureus [2] (setting [10]), 6.2 µg/mL (≈ 4.27 µM). The HC50 at 2 h in data set [3] was 100 µg/mL.

Regarding `N=C(N)NCCC[C@@H]1NC(=O)[C@H](CCCNC(=N)N)NC(=O)[C@H](CCCNC(=N)N)NC(=O)[C@H](C(c2ccccc2)c2ccccc2)NC(=O)[C@H](C(c2ccccc2)c2ccccc2)NC(=O)[C@H](C(c2ccccc2)c2ccccc2)NC(=O)[C@H](C(c2ccccc2)c2ccccc2)NC(=O)[C@H](CCCNC(=N)N)NC1=O` (cyclo([Dip][Dip][Dip][Dip]RRRR)), the MIC with Staphylococcus aureus [1] is 3.1 µg/mL (≈ 2.04 µM); with Escherichia coli, 25 µg/mL (≈ 16.5 µM); in the data set on Pseudomonas aeruginosa, 25 µg/mL (≈ 16.5 µM); in the data set on Staphylococcus aureus [2] (setting [10]), 6.2 µg/mL (≈ 4.08 µM). Further, in data set [3], the HC50 at 2 h came to 40 µg/mL.

For the compound `N=C(N)NCCC[C@@H]1NC(=O)[C@H](CCCNC(=N)N)NC(=O)[C@H](C(c2ccccc2)c2ccccc2)NC(=O)[C@H](C(c2ccccc2)c2ccccc2)NC(=O)[C@H](CCCNC(=N)N)NC(=O)[C@H](CCCNC(=N)N)NC(=O)[C@H](C(c2ccccc2)c2ccccc2)NC1=O` (stereo in doubt; 16C), the MIC in the data set with Staphylococcus aureus [1] was 6.2 µg/mL (≈ 4.79 µM); in the data set with Escherichia coli, greater than 100 µg/mL; with Pseudomonas aeruginosa it was 50 µg/mL (≈ 38.6 µM); against Staphylococcus aureus [2] (24 h) it was 6.2 µg/mL (≈ 4.79 µM). In addition, the HC50 at 2 h in data set [3] worked out at 130 µg/mL.

For `N=C(N)NCCC[C@@H]1NC(=O)[C@H](CCCNC(=N)N)NC(=O)[C@H](Cc2ccc3ccccc3c2)NC(=O)[C@H](Cc2ccc3ccccc3c2)NC(=O)[C@H](CCCNC(=N)N)NC(=O)[C@H](CCCNC(=N)N)NC(=O)[C@H](Cc2ccc3ccccc3c2)NC1=O` (stereo in doubt; 18C), the MIC was 6.2 µg/mL (≈ 5.1 µM) with Staphylococcus aureus [1], 25 µg/mL (≈ 20.6 µM) in the data set on Escherichia coli, greater than 100 µg/mL in the data set on Pseudomonas aeruginosa and 6.2 µg/mL (≈ 5.1 µM) in the data set on Staphylococcus aureus [2] (setting [10]). The HC50 at 2 h in [3] worked out at 105 µg/mL.

As for `CN[C@H](CC(C)C)C(=O)N[C@H]1C(=O)N[C@@H](CC(N)=O)C(=O)N[C@H]2C(=O)N[C@H]3C(=O)N[C@H](C(=O)N[C@H](C(=O)O)c4cc(O)cc(O)c4-c4cc3ccc4O)[C@H](O)c3ccc(c(Cl)c3)Oc3cc2cc(c3O[C@@H]2O[C@H](CO)[C@@H](O)[C@H](O)[C@H]2O[C@H]2C[C@](C)(N)[C@H](O)[C@H](C)O2)Oc2ccc(cc2Cl)[C@H]1O` [VANCOMYCIN], the MIC is greater than 50 µg/mL with Enterococcus faecalis [4]; 0.7 µg/mL (≈ 0.483 µM) in the data set on Bacillus subtilis; 1.5 µg/mL (≈ 1.04 µM) against Streptococcus pneumoniae [5]; greater than 50 µg/mL in the data set with Enterococcus faecium [6]; 1.5 µg/mL (≈ 1.04 µM) with Enterococcus faecium [7]; 0.7 µg/mL (≈ 0.483 µM) against Enterococcus faecalis [8]. For the same compound, the MIC with Streptococcus pneumoniae [9] stood at 3.1 µg/mL (≈ 2.14 µM); with Bacillus cereus, 0.7 µg/mL (≈ 0.483 µM).
